For 22 molecules, IC50 and Ki results are on record in patent US10988477B2 (Merck Patent GmbH, priority 2018, dated 2021).

Where two headings read alike, the source gives them in different places.

The target of experiment [1] is intracellular GCN2 (phosphorylation of the GCN2 substrate eIF2α) (Homo sapiens, UniProt Q9P2K8). Put plainly: GCN2 cellular inhibition assay (AlphaScreen SureFire P-eIF2α Ser51, borrelidin-treated U2OS cells). Type of experiment: cell-based. The method, boiled down:
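U2OS cells, adhered overnight, received compounds in 4-fold serial dilutions from 40 μM final, then 10 μM borrelidin for 1 h at 37 °C. Lysates were read by AlphaScreen for phospho-eIF2α Ser51; percent inhibition was set against borrelidin-only wells.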
Background: Alpha assays give light when donor and acceptor beads are brought close together.

The next experiment concerns the target GCN2 kinase (Homo sapiens, UniProt Q9P2K8). The experiment in a line: GCN2 enzyme inhibition assay (Transcreener ADP2 fluorescence polarization). The experiment is classed as biochemical. The settings on record: 280 μM ATP; for IC50: compounds of Formula IV. The method, boiled down: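 FP detection of ADP (antibody plus Alexa633 tracer) after a 1 h, 25 °C kinase reaction. Enzyme 4 nM, ATP 280 μM, (RS)7 peptide 200 μM, Tris pH 7.5 buffer with MgCl2 and DTT. Percent inhibition fitted by non-linear tight-binding algorithm for IC50 and Ki(app).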
On the technique in general: Polarisation of emitted light reports the rotation of a fluorescent probe.

The mark [2] stands for this setting: compounds of Formula II, biomarker assay, phosphorylated eIF2α Ser51 in borrelidin-treated U2OS cells.
[3] abbreviates: compounds of Formula II, 4 nM GCN2 kinase.
Setting [4] is: compounds of Formula IV, biomarker assay, phosphorylated eIF2α Ser51 in borrelidin-treated U2OS cells.
[5] abbreviates: Enzyme activity for compounds of Formula IV, Ki(app), 25° C.

GCN2 kinase, sequence (Q9P2K8 whole entry): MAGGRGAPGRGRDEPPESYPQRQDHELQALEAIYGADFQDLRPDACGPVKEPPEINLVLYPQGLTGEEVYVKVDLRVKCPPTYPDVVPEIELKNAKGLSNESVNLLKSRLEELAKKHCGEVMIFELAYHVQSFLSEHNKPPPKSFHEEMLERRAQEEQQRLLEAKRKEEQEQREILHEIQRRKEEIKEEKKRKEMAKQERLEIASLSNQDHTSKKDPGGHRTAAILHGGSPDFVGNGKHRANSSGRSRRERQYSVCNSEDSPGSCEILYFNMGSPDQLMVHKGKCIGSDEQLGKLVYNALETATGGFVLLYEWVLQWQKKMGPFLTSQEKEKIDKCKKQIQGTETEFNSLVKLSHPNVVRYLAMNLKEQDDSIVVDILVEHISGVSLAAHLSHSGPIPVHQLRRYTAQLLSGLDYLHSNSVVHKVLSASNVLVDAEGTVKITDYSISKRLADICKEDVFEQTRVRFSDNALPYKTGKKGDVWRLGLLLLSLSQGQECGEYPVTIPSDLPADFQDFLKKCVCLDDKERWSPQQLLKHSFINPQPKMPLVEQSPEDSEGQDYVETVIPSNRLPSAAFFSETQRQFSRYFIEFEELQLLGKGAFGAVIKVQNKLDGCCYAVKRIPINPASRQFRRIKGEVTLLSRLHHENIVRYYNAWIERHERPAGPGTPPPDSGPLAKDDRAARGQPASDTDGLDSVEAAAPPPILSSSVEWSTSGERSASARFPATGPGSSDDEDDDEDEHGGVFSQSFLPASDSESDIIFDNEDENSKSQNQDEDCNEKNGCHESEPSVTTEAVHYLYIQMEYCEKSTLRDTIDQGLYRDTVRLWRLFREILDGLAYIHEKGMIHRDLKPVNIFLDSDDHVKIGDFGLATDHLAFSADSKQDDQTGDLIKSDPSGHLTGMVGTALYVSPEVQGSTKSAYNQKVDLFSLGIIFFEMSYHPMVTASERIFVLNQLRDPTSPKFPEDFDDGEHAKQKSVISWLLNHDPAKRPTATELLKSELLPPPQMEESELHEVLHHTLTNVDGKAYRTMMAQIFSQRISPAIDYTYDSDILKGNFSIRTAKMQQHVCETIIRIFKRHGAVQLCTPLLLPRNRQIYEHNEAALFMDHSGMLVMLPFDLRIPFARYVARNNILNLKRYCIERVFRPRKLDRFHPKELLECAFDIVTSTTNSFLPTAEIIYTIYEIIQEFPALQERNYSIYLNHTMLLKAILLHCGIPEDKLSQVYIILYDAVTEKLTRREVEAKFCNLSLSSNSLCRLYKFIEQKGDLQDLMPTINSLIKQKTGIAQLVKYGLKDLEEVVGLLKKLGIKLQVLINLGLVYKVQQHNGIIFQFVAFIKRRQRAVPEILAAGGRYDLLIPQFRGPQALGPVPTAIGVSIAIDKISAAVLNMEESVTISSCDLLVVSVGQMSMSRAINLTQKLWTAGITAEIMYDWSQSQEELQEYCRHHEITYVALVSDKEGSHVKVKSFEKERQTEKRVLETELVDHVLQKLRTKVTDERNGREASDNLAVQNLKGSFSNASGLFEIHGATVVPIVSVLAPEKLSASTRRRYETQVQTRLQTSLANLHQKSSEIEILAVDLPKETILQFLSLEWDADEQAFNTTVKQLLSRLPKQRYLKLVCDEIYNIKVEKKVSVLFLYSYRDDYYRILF
intracellular GCN2 (phosphorylation of the GCN2 substrate eIF2α), sequence (Q9P2K8 whole entry): as above

As to `CS(C)(=O)=NC[C@@H]1CN(c2cc(-c3cnc4ccc(C(F)F)nn34)ncn2)CCO1` [II-10, [(2S)-4-[6-[6-(Difluoromethyl)imidazo[1,2-b]pyridazin-3-yl]pyrimidin-4-yl]morpholin-2-yl]methylimino-dimethyl-oxo-sulfane], the IC50 in experiment [1] (setting [2]) is > 5000 nM. On GCN2 kinase (setting [3]), this molecule gave a Ki of 10 to 1000 nM.

As to `CP(C)(=O)C1CC(c2cn[nH]c2)CN(c2ccnc(-c3cnc4cnc(C(F)(F)F)cn34)n2)C1` (single isomer, unassigned) [IV-592, (5-(1H-Pyrazol-4-yl)-1-(2-(6-(trifluoromethyl)imidazo[1,2-a]pyrazin-3-yl)pyrimidin-4-yl)piperidin-3-yl)dimethylphosphine oxide], the IC50 in experiment [1] (setting [4]) is > 5000 nM. Besides, the Ki on GCN2 kinase (setting [5]) was < 10 nM.

For `C[C@@H]1C[C@H](c2c[nH]nc2F)CN(c2nccc(-c3cnc4cnc(C(F)(F)F)cn34)n2)C1` [IV-757, 3-(2-((3R,5R)-3-(3-fluoro-1H-pyrazol-4-yl)-5-methylpiperidin-1-yl)pyrimidin-4-yl)-6-(trifluoromethyl)imidazo[1,2-a]pyrazine], the IC50 is < 500 nM in experiment [1] (setting [4]) and 10 to 1000 nM at GCN2 kinase (4 nM GCN2 kinase).

Take `CN1CCN(c2cc(-c3cnc4ccc(C(F)F)nn34)ncn2)CC12CN(S(N)(=O)=O)C2` [II-535, 8-(6-(6-(Difluoromethyl)imidazo[1,2-b]pyridazin-3-yl)pyrimidin-4-yl)-5-methyl-2,5,8-triazaspiro[3.5]nonane-2-sulfonamide]: the IC50 in experiment [1] (setting [2]) lay within 500 to 5000 nM. The same molecule gave a Ki at GCN2 kinase (setting [3]) of 10 to 1000 nM.

For `Brc1cn2c(-c3nccc(N4CCOC(c5cn[nH]c5)C4)n3)cnc2cn1` (centres unmarked) [IV-19, 4-(2-(6-Bromoimidazo[1,2-a]pyrazin-3-yl)pyrimidin-4-yl)-2-(1H-pyrazol-4-yl)morpholine], the IC50 in experiment [1] (setting [4]) is < 500 nM. Also, the Ki on GCN2 kinase (setting [5]) is < 10 nM.

As to `C[C@@H]1CCC[C@H](C)N1c1ccnc(-c2cnc3cnc(C(F)F)cn23)n1` [IV-122, 6-(Difluoromethyl)-3-(4-((2S,6R)-2,6-dimethylpiperidin-1-yl)pyrimidin-2-yl)imidazo[1,2-a]pyrazine], in experiment [1] (setting [4]), the IC50 was > 5000 nM. Further, the Ki on GCN2 kinase (setting [5]) is 100 to 1000 nM.

As for `FC(F)c1ccc2ncc(-c3cc(N4Cc5ccncc5C4)ncn3)n2n1` [II-28, 3-(6-(1H-Pyrrolo[3,4-c]pyridin-2(3H)-yl)pyrimidin-4-yl)-6-(difluoromethyl)imidazo[1,2-b]pyridazine], the IC50 in experiment [1] (setting [2]) is < 500 nM. Also, on GCN2 kinase (setting [3]), the Ki was 10 to 1000 nM.

Take `FC(F)(F)c1ccc2ncc(-c3ccnc(N4CCCC(c5c[nH]cn5)C4)c3)n2n1` (centres unmarked) [II-741]: the IC50 in experiment [1] (setting [2]) was < 500 nM. The Ki on GCN2 kinase (setting [3]) was < 10 nM.

Regarding `CC1CC(F)(F)C(CNS(C)(=O)=O)CN1c1cc(-c2cnc3ccc(C(F)F)nn23)ncn1` (centres unmarked) [II-433, N-((1-(6-(6-(Difluoromethyl)imidazo[1,2-b]pyridazin-3-yl)pyrimidin-4-yl)-4,4-difluoro-6-methylpiperidin-3-yl)methyl)methanesulfonamide], in experiment [1] (setting [2]), the IC50 was < 500 nM. Moreover, the Ki at GCN2 kinase (setting [3]) was < 10 nM.

As for `O=C1CCCC2CN(c3cc(-c4cnn5cccnc45)ccn3)CCN12` (centres unmarked) [III-16, 2-(4-(pyrazolo[1,5-a]pyrimidin-3-yl)pyridin-2-yl)octahydro-6H-pyrido[1,2-a]pyrazin-6-one], in experiment [1] (compounds of Formula III, U2OS cells, 10 μM borrelidin, 1 h, read-out: GCN2 Biomarker (IC50)), the IC50 was > 5000 nM. Moreover, the Ki at GCN2 kinase (compounds of Formula III, 4 nM GCN2 kinase) was > 1000 nM.

For the molecule `CC1C(CO)OCCN1c1cc(-c2cnc3ccc(C(F)F)nn23)ncn1` (single isomer, unassigned) [II-413, (4-(6-(6-(Difluoromethyl)imidazo[1,2-b]pyridazin-3-yl)pyrimidin-4-yl)-3-methylmorpholin-2-yl)methanol], in experiment [1] (setting [2]), the IC50 was > 5000 nM. Also, at GCN2 kinase (setting [3]), the Ki was > 1000 nM.

Consider `C[C@H]1C[C@@H](c2cn[nH]c2)CN(c2ccnc(-c3cnc4cnc(C(F)(F)F)cn34)n2)C1` [IV-771, 3-(4-((3S,5S)-3-methyl-5-(1H-pyrazol-4-yl)piperidin-1-yl)pyrimidin-2-yl)-6-(trifluoromethyl)imidazo[1,2-a]pyrazine], for which the IC50 in experiment [1] (setting [4]) is < 500 nM; against GCN2 kinase (4 nM GCN2 kinase), < 10 nM.

As to `NC(=O)[C@H]1CCCN(c2ccnc(-c3cnc4cnc(C(F)F)cn34)n2)C1` [IV-50, (S)-1-(2-(6-(Difluoromethyl)imidazo[1,2-a]pyrazin-3-yl)pyrimidin-4-yl)piperidine-3-carboxamide], the IC50 in experiment [1] (setting [4]) lay within 500 to 5000 nM. The Ki at GCN2 kinase (setting [5]) was 10 to 100 nM.

In experiment [1] (setting [2]), `O=C1OC[C@@H]2CN(c3cc(-c4cnc5ccc(C(F)F)nn45)ncn3)CCN12` [II-47, (S)-7-(6-(6-(Difluoromethyl)imidazo[1,2-b]pyridazin-3-yl)pyrimidin-4-yl)hexahydro-3H-oxazolo[3,4-a]pyrazin-3-one] registered an IC50 of 500 to 5000 nM. The same molecule returned a Ki on GCN2 kinase (setting [3]) of 10 to 1000 nM.

In turn, `FC(F)(F)c1cn2c(-c3nccc(N4CCC(C5CCOC5)C4)n3)cnc2cn1` (centres unmarked) [IV-608, 3-(4-(3-(Tetrahydrofuran-3-yl)pyrrolidin-1-yl)pyrimidin-2-yl)-6-(trifluoromethyl)imidazo[1,2-a]pyrazine] yielded an IC50 in experiment [1] (setting [4]) of 500 to 5000 nM. On GCN2 kinase (setting [5]), this molecule displayed a Ki of 100 to 1000 nM.

In experiment [1] (setting [4]), `CC1C(c2cn[nH]c2)CCN1c1ccnc(-c2cnc3cnc(C(F)(F)F)cn23)n1` (centres unmarked) [IV-688, 3-(4-(2-Methyl-3-(1H-pyrazol-4-yl)pyrrolidin-1-yl)pyrimidin-2-yl)-6-(trifluoromethyl)imidazo[1,2-a]pyrazine] yielded an IC50 of 500 to 5000 nM. This molecule also yielded a Ki at GCN2 kinase (setting [5]) of 10 to 100 nM.

Turning to `FC(F)c1ccc2ncc(-c3cc(C4CCCN(C5COC5)C4)ncn3)n2n1` (single isomer, unassigned) [II-242, 6-(Difluoromethyl)-3-(6-(1-(oxetan-3-yl)piperidin-3-yl)pyrimidin-4-yl)imidazo[1,2-b]pyridazine], in experiment [1] (setting [2]), the IC50 is > 5000 nM. Further, the Ki on GCN2 kinase (setting [3]) is 10 to 1000 nM.

Molecule `CS(=O)(=O)NCC1CN(c2cc(-c3cnc4ccc(C(F)F)nn34)ccn2)CCN1` (centres unmarked) [II-90, N-((4-(4-(6-(Difluoromethyl)imidazo[1,2-b]pyridazin-3-yl)pyridin-2-yl)piperazin-2-yl)methyl)methanesulfonamide] yielded an IC50 in experiment [1] (setting [2]) of 500 to 5000 nM. On GCN2 kinase (setting [3]), this molecule registered a Ki of 10 to 1000 nM.

As to `C[C@H]1COCCN1c1cc(-c2cnc3ccc(C(F)F)nn23)ncn1` [II-325, (S)-4-(6-(6-(Difluoromethyl)imidazo[1,2-b]pyridazin-3-yl)pyrimidin-4-yl)-3-methylmorpholine], the IC50 in experiment [1] (setting [2]) is 500 to 5000 nM. At GCN2 kinase (setting [3]), this molecule displayed a Ki of 10 to 1000 nM.

For `CC1(F)CCN(c2cc(-c3cnc4ccc(C(F)F)nn34)ncn2)CC1CNS(C)(=O)=O` (racemic) [II-350, N-((1-(6-(6-(Difluoromethyl)imidazo[1,2-b]pyridazin-3-yl)pyrimidin-4-yl)-4-fluoro-4-methylpiperidin-3-yl)methyl)methanesulfonamide], the IC50 in experiment [1] (setting [2]) is < 500 nM. The Ki at GCN2 kinase (setting [3]) is < 10 nM.

`CC1CN(c2ccnc(-c3cnc4cnc(C(F)(F)F)cn34)n2)CC(c2cn[nH]c2)N1` (single isomer, unassigned) [IV-461, 3-(4-(3-Methyl-5-(1H-pyrazol-4-yl)piperazin-1-yl)pyrimidin-2-yl)-6-(trifluoromethyl)imidazo[1,2-a]pyrazine] returned an IC50 in experiment [1] (setting [4]) of 500 to 5000 nM. This molecule also registered a Ki on GCN2 kinase (setting [5]) of 10 to 100 nM.

Regarding `Clc1ccc2ncc(-c3ccnc(-c4ccccc4)c3)n2n1` [II-27, 6-Chloro-3-(2-phenylpyridin-4-yl)imidazo[1,2-b]pyridazine], in experiment [1] (setting [2]), the 50% inhibitory concentration (IC50) was > 5000 nM. Also, the Ki on GCN2 kinase (setting [3]) lay in the range of 10 to 1000 nM.

The term IC50 denotes the concentration at which inhibition is half-maximal.
